# Measurements taken from patent publication US10314883B2, “Compositions and methods for regulating blood pressure” (University of Virginia Patent Foundation, priority 2015, dated 2019).
# Assays:
# Cre/Panx1 mice = assay: Blood pressure by radiotelemetry before and after tamoxifen in the conditional KO mouse model; assay type: in vivo
# Protocol: Blood pressure was measured using radiotelemetry units (Data Sciences International, DSI) implanted in C57Bl/6, Cre^−/Panx1^F1, Cre^−/Panx1^WT, Cre^+/Panx1^WT, and Cre^+/Panx1^F1 mice. The catheter of a radiotelemetry unit (TA11PA-C10, DSI) was implanted in the mouse left carotid artery under isoflurane anesthesia, and the catheter was tunneled trough the radiotransmitter placed in a subcutaneous pouch along the right flank of the mouse, as previously described. After implantation, mice were allowed to recover for seven days.
# For experiments on the conditional KO mouse model: blood pressure was measured using Dataquest A.R.T. 20 software (DSI) for five days before proceeding to tamoxifen injections at 1 mg/kg for ten days. Blood pressure was recorded for another five days 24 hours after the last tamoxifen injection. The change in mean arterial pressure (ΔMAP) was calculated by subtracting the average MAP measured for five days before tamoxifen injections to the mean arterial pressure measured for five days after the tamoxifen injections. […]
# Based on the central role of α1AR signaling in blood pressure homeostasis, we evaluated the effect of Panx1 deletion on systemic blood pressure. Blood pressure was measured using radiotelemetry units as previously described by us. Blood pressure was measured on the conditional KO mouse model for five days before proceeding to tamoxifen injections, and for another five days 24 hours after the last tamoxifen injection. The change in mean arterial pressure (ΔMAP) was calculated by subtracting the average MAP measured for five days before tamoxifen injections to the MAP measured for five days after the tamoxifen injections. Day MAP was measured during the light cycle (06:00-18:00), while night MAP was measured during the nocturnal cycle (18:00 to 06:00). For experiments on C57Bl/6, basal blood pressure was measured continuously for 30 minutes before intraperitoneal injection of saline solution or peptide, and for 1.5 hours after the injection. […]
# [1] = test system: anaesthetized guinea pigs; details: injected into anaesthetized guinea pigs; cited from earlier work
# [2] = test system: thoracodorsal arteries (TDA); assay: Pressure myography: agonist-induced constriction of pressurized TDAs from C57Bl/6 mice with pannexin inhibitors or Panx1 mimetic peptides; assay type: cell-based, mouse
# Protocol: The contractile responses of pressurized thoracodorsal arteries (TDA) were measured as previously described. Briefly, TDA were isolated and placed in cold Krebs-HEPES until cannulation in a pressure arteriograph (Danish MyoTechnology). After a 30 minute equilibration period, cumulative concentrations of contractile agonists were applied to the TDA pressurized at 80 mmHg, and the vessel was visualized with an Olympus IX-71 microscope attached to a Hamamatsu EM-CCD camera coupled to Slidebook imaging software. […] Lastly, maximal diameter was measured at the end of each experiment in calcium-free Krebs-HEPES supplemented with EGTA (1 mmol/L) and sodium nitroprusside (10 μmol/L). In cases where the vessels were not constricting to the contractile agonist, their viability was assessed by applying 40 mM KCl and only TDA reaching 30% of the maximal diameter were considered for analysis. The contractile responses, as well as the basal tone, are expressed as a percentage of the maximal diameter.
# Using pressure arteriography on TDA dissected from C57Bl/6 mice (as described; and aortic ring contraction, as described), we measured the effect of pannexin inhibitors, probenecid and 10Panx1, on the contractile response upon stimulation with different vasoconstrictors: phenylephrine (FIG. 1A), noradrenaline (also called norepinephrine) (FIG. 1B), serotonin (also known as 5-HT) (FIG. 1C) and endothelin-1 (FIG. 1D). […] In contrast, ^10Panx1 and probenecid had no effect on contraction of TDA measured in response to cumulative concentrations of serotonin or endothelin-1 (FIGS. 1C-D; Table 1).
# To determine the region of Panx1 necessary for channel activation in response to α1AR stimulation, we produced short peptides derived from the intracellular regions of the Panx1 channel. We generated two peptides mimicking unique mouse Panx1 (mPanx1) sequences in the first intracellular loop (IL1 and IL2) and two peptides mimicking unique mPanx1 sequences in the C-terminal region, one in second intracellular loop (CT1) and one in the C-terminal tail (CT2) (FIG. 4A scissors indicate caspase 3 cleavage site; Table 3). All peptides also contained a TAT sequence to facilitate entry into cells and we verified the intracellular localization of each peptide by immunofluorescence detection of the TAT sequence in TDAs pre-incubated with each peptide (FIG. 7A). We tested the effect of each peptide on phenylephrine-induced contractile responses in pressurized TDAs from C57Bl/6 mice (FIGS. 4B-E). […] Note that these differences in effects of phenylephrine were similar in magnitude to those observed in arteries from SMC-specific Panx1-knockout mice and littermate controls (FIG. 2C, Table 2).
# Panx1 [3] = target: T1, Panx1 (Homo sapiens, UniProt Q96RD7); details: neurons; cited from earlier work
# Target sequence in this assay (Q96RD7 whole entry, species assumed): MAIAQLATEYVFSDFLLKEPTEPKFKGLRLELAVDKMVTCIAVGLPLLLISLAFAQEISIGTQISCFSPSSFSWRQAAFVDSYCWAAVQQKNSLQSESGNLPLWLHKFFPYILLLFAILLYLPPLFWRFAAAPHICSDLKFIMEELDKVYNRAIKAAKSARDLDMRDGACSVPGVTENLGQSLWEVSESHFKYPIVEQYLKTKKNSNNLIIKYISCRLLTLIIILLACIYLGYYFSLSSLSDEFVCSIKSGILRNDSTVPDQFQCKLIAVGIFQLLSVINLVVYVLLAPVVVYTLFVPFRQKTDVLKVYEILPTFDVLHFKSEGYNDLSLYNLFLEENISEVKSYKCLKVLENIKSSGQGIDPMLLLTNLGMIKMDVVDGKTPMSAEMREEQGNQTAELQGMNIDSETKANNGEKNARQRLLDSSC
# Panx1 [4] = target: T2, Panx1 (Mus musculus, UniProt Q9JIP4); assay: Whole-cell patch clamp of CBX-sensitive Panx1 current in HEK293 cells cotransfected with mPanx1 and α1DAR; assay type: cell-based; details: CBX 50 μmol/L after phenylephrine, +80 mV
# T2 construct: we progressively substituted amino acids in this region of full-length Panx1 with alanine residues; HA; expressed in transfected cells; host or cells: HEK293T cells, transient co-transfection with alpha1DAR plasmid (Origene, NM_013460, C-terminal Myc-DDK)
# T2 sequence (Q9JIP4 whole entry): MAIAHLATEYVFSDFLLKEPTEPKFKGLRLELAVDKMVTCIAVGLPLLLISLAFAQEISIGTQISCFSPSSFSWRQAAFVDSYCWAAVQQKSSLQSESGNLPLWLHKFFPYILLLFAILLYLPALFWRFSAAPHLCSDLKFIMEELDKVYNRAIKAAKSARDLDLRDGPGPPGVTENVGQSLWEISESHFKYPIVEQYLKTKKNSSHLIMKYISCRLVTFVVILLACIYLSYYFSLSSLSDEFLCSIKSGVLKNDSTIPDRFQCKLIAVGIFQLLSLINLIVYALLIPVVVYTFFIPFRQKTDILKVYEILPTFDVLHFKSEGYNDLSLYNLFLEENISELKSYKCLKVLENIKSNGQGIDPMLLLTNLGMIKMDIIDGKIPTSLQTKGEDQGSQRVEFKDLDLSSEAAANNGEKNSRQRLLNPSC
# Protocol: Human Embryonic Kidney (HEK) 293T cells were cultured as previously described, and were used until passage 20. For ATP measurements, 50,000 cells/well were seeded in 24 well plates pre-coated with 0.01% poly-L-lysine, and transfected using Lipofectamine 2000 (Invitrogen) according to the manufacturer protocol. Briefly, 0.4 μg of α1DAR and 0.4 μg of Panx1^WT, Panx1^KYP>AAA, Panx1^IVEQ>AAA or Panx1^YLK>AAA plasmids were added to each well along with 2 μl of Lipofectamine 2000. For electrophysiology measurements, 4 μg of α1DAR plasmid, 2 μg of Panx1^WT, Panx1^KYP>AAA, Panx1^IVEQ>AAA or Panx1^YLK>AAA plasmids, and 0.5 μg of GFP plasmid were mixed with 10 μl Lipofectamine 2000 and added to a well of 6-well plate seeded with ˜70% confluent HEK cells. Cells were split the next morning and plated onto a glass coverslip for recording. ATP measurements and whole-cell recordings were performed 24 hours after transfection.
# Whole-cell recordings were obtained at room temperature from transiently transfected HEK293T cells using Axopatch 200B amplifier (Molecular Devices) in a bath solution composed of 140 mmol/L NaCl, 3 mmol/L KCl, 2 mmol/L MgCl2, 2 mmol/L CaCl2, 10 mmol/L HEPES and 10 mmol/L glucose (pH 7.3). Patch pipettes (3-5 MΩ) were filled with a Cs-/TEA-based internal solution, as previously described. Ramp voltage commands with 7-s intervals were applied using pCLAMP software and Digidata1322A digitizer (Molecular Devices). Peak whole-cell currents were determined at +80 mV and normalized to cell capacitance. Current mediated by Panx1 was defined by its sensitivity to carbenoxolone (CBX). In this system, no CBX-sensitive current is observed in HEK293T cells without Panx1. Basal current was recorded for approximately two minutes and PE (20 μmol/L) was applied to the bath solution, which was followed by addition of CBX (50 μmol/L). When indicated, cells were pre-incubated with bath solution containing IL2 peptide or its scrambled version at room temperature for 40-60 minutes prior to the experiment. The effect of PE on Panx1 current was quantified relative to CBX-sensitive basal current, and data was expressed as percent increase in CBX-sensitive current. All experiments were performed on 8 to 22 cells for each conditions tested. Data were analyzed using a Kruskall Wallis test (non-parametric one-way ANOVA) followed by Dunn's post-hoc test.
# To test if α1AR stimulation triggered opening of the Panx1 channel and the importance of the region represented by the IL2 peptide, we cotransfected mPanx1 and α1DAR into HEK293 cells and monitored whole-cell currents by patch clamp electrophysiology.
# Panx1 [5] = target: T1, Panx1; details: cited from earlier work
# Target sequence in this assay (Q96RD7 whole entry): as the sequence (Q96RD7 whole entry, species assumed) above
compound,measurement,setting,value
CC/C(=C(\c1ccccc1)c1ccc(OCCN(C)C)cc1)c1ccccc1 [tamoxifen],heart rate,"Cre/Panx1 mice; Cre^+/Panx1^Fl mice, after tamoxifen",549±7 beats per min
same,decrease of mean arterial blood pressure,"Cre/Panx1 mice; Cre^+/Panx1^Fl mice, tamoxifen 1 mg/kg i.p. for ten days (induces SMC Panx1 deletion)",4.6±2.1 mmHg
same,change of mean arterial blood pressure,"Cre/Panx1 mice; mice retaining Panx1 (Cre^−/Panx1^WT, Cre^−/Panx1^Fl, Cre^+/Panx1^WT)",no evident changes
OC(c1cc(C(F)(F)F)nc2c(C(F)(F)F)cccc12)C1CCCCN1 (stereo not drawn) [mefloquine],effect on blood pressure,[1],induces hypotension
mPanx1 305-RRLKVYEILPTFDVLH-318 (SEQ ID NO: 5) linked with TAT; previously published to inhibit NMDA-mediated Panx1 opening [CT1],effect on phenylephrine-induced constriction of pressurized TDAs,"[2]; TAT-linked peptides, C57Bl/6 TDAs",did not affect
same,EMAX of phenylephrine for TDA constriction,[2]; in presence of the named peptide,50.7 ± 9.08 percentage of maximal diameter
same,effect on NMDA-induced Panx1 activation,Panx1 [3],prevent
"CC1(C)[C@@H](OC(=O)CCC(=O)O)CC[C@]2(C)[C@H]3C(=O)C=C4[C@@H]5C[C@@](C)(C(=O)O)CC[C@]5(C)CC[C@@]4(C)[C@]3(C)CC[C@@H]12 [CBX, carbenoxolone]",effect on Panx1 whole-cell current,Panx1 [4],abolished the current
N[C@@H]1[C@H]2CN(c3nc4c(cc3F)c(=O)c(C(=O)O)cn4-c3ccc(F)cc3F)C[C@@H]12 [Trovafloxacin],inhibition of Panx1 channels,Panx1 [5],can also inhibit Panx1 channels
